# Measured values as given in ChEMBL document CHEMBL5500382, “Discovery of potent small molecule ubiquitin-specific protease 10 inhibitors with anti-hepatocellular carcinoma activity through regulating YAP expression” (Eur J Med Chem, 2024).
# Test system: Bel-7402
# Assay: Antiproliferative activity against human Bel-7402 cells by CCK-8 method
row,IC50,SMILES
1,22.7 µM,Cc1ccc2c(=O)c(-c3nc(-c4ccccc4C)no3)cn(CC(=O)Nc3c(F)cccc3F)c2n1

# Molecular target: T1, Ubiquitin carboxyl-terminal hydrolase 13 (Homo sapiens, UniProt Q92995)
# T1 sequence (Q92995 whole entry): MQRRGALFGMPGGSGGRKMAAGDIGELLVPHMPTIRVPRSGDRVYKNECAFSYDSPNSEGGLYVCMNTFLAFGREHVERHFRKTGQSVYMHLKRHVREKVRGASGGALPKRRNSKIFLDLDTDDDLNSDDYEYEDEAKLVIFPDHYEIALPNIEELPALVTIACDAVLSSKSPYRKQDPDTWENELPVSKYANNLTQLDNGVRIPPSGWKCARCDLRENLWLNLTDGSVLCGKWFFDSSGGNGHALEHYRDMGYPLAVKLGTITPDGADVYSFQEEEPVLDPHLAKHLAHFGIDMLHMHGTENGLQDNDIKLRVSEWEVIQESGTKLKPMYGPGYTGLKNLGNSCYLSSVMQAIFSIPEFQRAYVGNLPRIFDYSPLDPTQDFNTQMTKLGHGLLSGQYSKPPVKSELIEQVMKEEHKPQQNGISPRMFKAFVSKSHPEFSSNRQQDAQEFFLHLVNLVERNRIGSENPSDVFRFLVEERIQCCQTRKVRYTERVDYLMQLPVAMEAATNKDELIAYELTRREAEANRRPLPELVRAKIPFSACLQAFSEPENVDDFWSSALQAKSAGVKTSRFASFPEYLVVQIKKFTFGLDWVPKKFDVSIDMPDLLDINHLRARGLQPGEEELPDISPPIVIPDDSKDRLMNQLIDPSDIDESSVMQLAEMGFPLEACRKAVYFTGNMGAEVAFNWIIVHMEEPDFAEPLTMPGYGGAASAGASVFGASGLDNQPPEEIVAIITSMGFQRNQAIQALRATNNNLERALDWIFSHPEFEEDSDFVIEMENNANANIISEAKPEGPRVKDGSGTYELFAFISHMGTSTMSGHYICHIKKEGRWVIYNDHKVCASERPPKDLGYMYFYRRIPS
# Assay: Inhibition of USP13 (unknown origin)
row,IC50,SMILES
1,0.7 µM,Fc1ccc(CNc2ncnc3ccc(F)cc23)cc1

# Molecular target: T2, Ubiquitin carboxyl-terminal hydrolase 10 (Homo sapiens, UniProt Q14694)
# T2 sequence (Q14694 whole entry): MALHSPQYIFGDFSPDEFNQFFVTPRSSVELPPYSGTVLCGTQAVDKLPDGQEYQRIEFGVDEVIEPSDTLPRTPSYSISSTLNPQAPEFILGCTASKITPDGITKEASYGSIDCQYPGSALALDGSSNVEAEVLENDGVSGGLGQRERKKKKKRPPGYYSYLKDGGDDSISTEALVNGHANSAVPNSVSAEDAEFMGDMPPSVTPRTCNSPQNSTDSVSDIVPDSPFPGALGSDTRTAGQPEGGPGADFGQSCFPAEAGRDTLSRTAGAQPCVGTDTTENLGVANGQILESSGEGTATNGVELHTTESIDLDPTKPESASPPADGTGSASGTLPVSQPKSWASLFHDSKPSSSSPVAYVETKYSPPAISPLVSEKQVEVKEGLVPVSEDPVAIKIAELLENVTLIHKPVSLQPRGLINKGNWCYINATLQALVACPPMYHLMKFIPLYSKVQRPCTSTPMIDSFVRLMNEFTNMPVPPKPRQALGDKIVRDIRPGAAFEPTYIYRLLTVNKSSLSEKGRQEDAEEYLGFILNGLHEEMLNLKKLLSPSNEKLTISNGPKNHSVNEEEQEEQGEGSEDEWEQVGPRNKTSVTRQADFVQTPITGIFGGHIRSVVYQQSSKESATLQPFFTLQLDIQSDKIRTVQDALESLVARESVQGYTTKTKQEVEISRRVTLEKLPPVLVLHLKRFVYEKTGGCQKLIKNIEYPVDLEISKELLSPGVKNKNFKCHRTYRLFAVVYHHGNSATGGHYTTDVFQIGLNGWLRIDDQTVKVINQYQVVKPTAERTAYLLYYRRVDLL
# Assay: Inhibition of human recombinant his tagged USP10 assessed as deubiquitinase activity
row,IC50,SMILES
1,8.3 µM,CCOC(=O)c1cc([N+](=O)[O-])c(Oc2ccc(C(=O)OC)cc2)s1

# Molecular target: T2, Ubiquitin carboxyl-terminal hydrolase 10
# Assay: Inhibition of human USP10 deubiquitinase activity using Ubiquitin 7-amino-4-carbamoylmethylcoumarin as substrate preincubated for 30 mins followed by substrate addition and measured after 30 mins by fluorometric assay
row,SMILES,IC50
1,Cc1ccc2c(=O)c(-c3nc(-c4ccccc4C)no3)cn(CC(=O)Nc3c(F)cccc3F)c2n1,11.1 µM
2,Cc1ccc2c(=O)c(-c3nnc(Cc4ccccc4)o3)cn(CC(=O)NCCc3ccc(Cl)cc3)c2c1,9 µM
3,C[C@H](NC(=O)c1cn(CC(=O)NCCc2ccc(Cl)cc2)c2cc(C(F)(F)F)ccc2c1=O)c1ccccc1,> 30 µM
4,Cc1ccccc1NC(=O)c1c[nH]c2cc(C(F)(F)F)ccc2c1=O,> 30 µM
5,Cc1ccccc1NC(=O)c1cn(CC(=O)NC(C)CO)c2cc(C(F)(F)F)ccc2c1=O (stereo not given),> 30 µM
6,Cc1ccccc1NC(=O)c1cn(CC(=O)N2CC3(CCN(C(=O)OC(C)(C)C)CC3)C2)c2cc(C(F)(F)F)ccc2c1=O,> 30 µM
7,Cc1ccccc1NC(=O)c1cn(CC(=O)N2CCC(N3CCN(C)CC3)CC2)c2cc(C(F)(F)F)ccc2c1=O,> 30 µM
8,COCCOc1ccc(N2CCN(C(=O)Cn3cc(C(=O)Nc4ccccc4C)c(=O)c4ccc(C(F)(F)F)cc43)CC2)cc1,> 30 µM
9,COc1ccc2c(=O)c(-c3nc(-c4ccccc4C)no3)cn(CC(=O)NCCc3ccc(Cl)cc3)c2c1,7.9 µM
10,Cc1ccc2c(=O)c(C(=O)N3CCOCC3)cn(CC(=O)NCCc3ccc(Cl)cc3)c2n1,> 30 µM
11,Cc1ccc2c(=O)c(C(=O)NC3CCOCC3)cn(CC(=O)NCCc3ccc(Cl)cc3)c2n1,> 30 µM
12,COc1ccc([C@H](C)NC(=O)c2cn(CC(=O)NCCc3ccc(Cl)cc3)c3cc(C)ccc3c2=O)cc1,21.2 µM
13,Cc1ccc2c(=O)c(C(=O)N[C@@H](C)c3ccccc3)cn(CC(=O)N3CCN(c4ccc(Cl)cc4)CC3)c2c1,10.9 µM
14,Cc1ccc2c(=O)c(-c3nc(-c4ccccc4C)no3)cn(CC(=O)NC3CCN(c4ccc(Cl)cc4)CC3)c2c1,9.2 µM

# Other lines, results leading:
row,IC50,SMILES
1,8.4 µM,Cc1ccccc1NC(=O)c1cn(CC(=O)NCCc2ccc(Cl)cc2)c2cc(N3CCOCC3)ccc2c1=O
2,> 30 µM,Cc1ccccc1NC(=O)c1cn(CC(=O)NCCc2ccc(Cl)cc2)c2ccc(F)cc2c1=O
3,9.5 µM,Cc1ccc2c(=O)c(C(=O)Nc3ccccc3C)cn(CC(=O)NCCc3ccc(Cl)cc3)c2n1
4,> 30 µM,Cc1ccc2c(=O)c(C(=O)N[C@@H](C)c3ccc(F)cc3)cn(CC(=O)NCCc3ccc(Cl)cc3)c2c1
5,11.9 µM,C[C@H](NC(=O)c1cn(CC(=O)NCCc2ccc(Cl)cc2)c2cc(F)ccc2c1=O)c1ccccc1
6,> 30 µM,Cc1ccc2c(c1)c(=O)c(C(=O)Nc1ccccc1C)cn2CC(=O)NCCc1ccc(Cl)cc1
7,> 30 µM,Cc1ccc2c(=O)c(C(=O)N[C@@H](C)c3ccccc3)cn(CC(=O)NCCc3ccc(Cl)cc3)c2c1
8,10.6 µM,Cc1ccccc1NC(=O)c1cn(CC(=O)NCCc2ccc(Cl)cc2)c2cc(N3CCCCC3)ccc2c1=O
